Data set [1] addresses truncated human beta-secretase, BACE1 (amino acids 1-454) (Homo sapiens (Human), UniProt P56817). Kind of data set: BACE1 Assay (Assay 1), fluorescence quench assay. The conditions noted are these: for IC50: read-out: BACE1 IC50 nM (assay 1); for pIC50: Table 2 comparison examples, read-out: BACE IC50 (assay 1). The format is biochemical. The method, then: The substrate was dissolved at 1 mg/ml in DMSO.
The assay was performed in the presence of OptiMEM (supernatant collected over 24 h and cleared from cellular debris by centrifugation) containing the ectodomain of BACE1, 25 μl water containing the desired 2-fold concentration of test compound and 2% DMSO, 1 μM substrate peptide, 20 mM NaOAc, pH 4.4, and 0.04% Triton-X100 in a total assay volume of 50 μl in a 384 well plate. In general, 25 μl of compound dilution were given to the plate followed by the addition of 10 μl of BACE1 containing OptiMEM™ diluted 1:10 in water with 0.2% Triton X-100. The reaction was started with the addition of 15 μl substrate in NaOAc buffer. The reaction was incubated at rt (dark) in an Envision® multilabel reader (Perkin Elmer) and the cleavage of the substrate was recorded as kinetic for 60 min at ex: 485 nm, em: 538 nm. Blank wells containing no enzyme were included on each plate.
The intensity of fluorescence was regressed against time in order to derive velocities of reaction in all 384 wells. These velocities were used for calculating percent control using an uninhibited control containing 1% DMSO as 100% and blank control performed in the absence of enzyme as 0%. IC50 values were calculated by fitting percent control vs. test compound concentration using Assay Explorer.

The subject of data set [2] is production of Abeta1-x peptides in H4 neuroglioma cell line stably expressing human APP. As to the kind of experiment: H4-APPwt Cell-Based Assay (Assay 2), Abeta1-x production. The conditions noted are these: for IC50: H4 neuroglioma cells expressing human APP, Abeta1-x, read-out: H4-APPwt cell IC50 nM (assay 2); for pIC50: Homo sapiens, Table 2 comparison examples, read-out: H4-Cell assay (assay 2). The method, then:
H4-APPwt Cell-Based Assay (Assay 2)
Cellular potency of the compounds of the invention was assessed in an assay monitoring production of Abeta1-x peptides in the H4 neuroglioma cell line (ATCC, Cat. #HTB-148) stably expressing human APP, using an immunoassay such as AlphaLISA (PerkinElmer, Cat.# AL288). Tested compounds were dissolved in DMSO and pre-diluted in the culture medium (DMEM containing 10% FBS and 1% penicillin/streptomycin) to achieve twice the final concentration of the compounds in the assay. Equal volumes of the 2× solutions of the tested compounds and cell suspension were added to a 96-well culture plate, so that each well contained ˜10,000 cells in a final volume of 200 μl. Final concentration of DMSO in the assay was 0.2%. The plates were incubated for 5 hrs at 37° C., 5% CO2 to allow cells to attach to the bottom of the wells in the presence of the tested compounds. Then the media was removed and replaced with fresh media containing tested compounds at the same final concentration. The plates were incubated for 18 hrs at 37° C., 5% CO2. Concentrations of Ab1-x were determined using AlphaLISA immunoassay (PerkinElmer, Cat.# AL288) following manufacturer's protocol. Concentrations of Abeta1-x in the wells containing either DMSO or 10 μM beta-secretase inhibitor (BACE inhibitor IV, EMD Bioscience, Cat. #565788) were used as uninhibited and background controls, correspondingly, for calculating percent inhibition values for each well with the tested compounds.

The target in the next data set is hERG (Homo sapiens (Human), UniProt Q12809). As to the kind of experiment: hERG-Channel Assay (Assay 3), whole-cell patch clamp. The following applies: for inhibition at 10 µM: human, HEK293 cells stably transfected with hERG, pH 7.4, HEK293 cells transfected with hERG. The data set is classed as cell-based. The source says:
hERG-Channel Assay (Assay 3)
HEK (human embryonic kidney) 293 cells were stably transfected with hERG cDNA.
Cells were superfused with a bath solution containing (mM): NaCl (137), KCl (4.0), MgCl2 (1.0), CaCl2 (1.8), Glucose (10), HEPES (10), pH 7.4 with NaOH. Patch pipettes were made from borosilicate glass tubing using a horizontal puller and filled with pipette solution containing (mM): K-aspartate (130), MgCl2 (5.0), EGTA (5.0), K2ATP (4.0), HEPES (10.0), pH 7.2 with KOH. Resistance of the microelectrodes was in the range between 2 and 5 MΩ.
Membrane currents were recorded using an EPC-10 patch clamp amplifier and PatchMaster software. hERG-mediated membrane currents were recorded at 35° C., using the whole-cell configuration of the patch-clamp technique. Transfected HEK293 cells were clamped at a holding potential of −60 mV and hERG-mediated inactivating tail currents were elicited using a pulse pattern with fixed amplitudes (activation/inactivation: 40 mV for 2000 ms; recovery: −120 mV for 2 ms; ramp to 40 mV in 2 ms; inactivating tail current: 40 mV for 50 ms) repeated at 15 s intervals. During each inter-pulse interval 4 pulses scaled down by a factor of 0.2 were recorded for a P/n leak subtraction procedure. Rs compensation was employed up to a level that safely allowed recording devoid of ringing.
The different concentrations of the test compound were applied sequentially on each of the different cells investigated. A steady state level of baseline current was measured for at least 6 sweeps prior to the application of the first test compound concentration.
The test compound was dissolved in DMSO to yield a master stock solution which was diluted further in DMSO to stock solutions needed for the lower concentrations. Final dilutions in extracellular buffer were prepared freshly from these stocks by a 1:1000 dilution step each before starting the experiments.
Peak current amplitudes were measured 3 ms after the ramp to +40 mV. For baseline and each concentration the peak currents of the three last sweeps before application of the next concentration were averaged. Residual currents (I/I0) were calculated for each cell as the fraction of actual average peak current and average baseline peak current. Results are presented as percent (%) inhibition (1−I/I0)*100% at 10 μM.
(The hERG channel carries a current that helps repolarise heart muscle cells.)

A short description of data set [3]: In Vitro Phospholipidosis Assay (Assay 4), Nile red staining. The format is cell-based. The conditions noted are these: human, first effect concentration, U937 cells, read-out: Phospholipidosis FEC IC50 μM (assay 4). The method, then: In Vitro Phospholipidosis Assay (Assay 4)
The phospholipidogenic potential of test compounds was assayed using the human hematopoetic U937 cell line. The test principle was to analyze the phospholipid content by staining the cells with the fluorescent dye Nile red.
U937 cells were seeded into cell culture plates at 0.5×10^6 cells/mL in RPMI medium containing 10% FBS, 1% DMSO, and 0.005% gentamicin. The cells were then cultivated with or without different concentrations of test compounds for 48 h under standard culture conditions.
For harvesting the cells were centrifuged at 130×g for 4 min and washed once with PBS. Then 2×0.5 mL cell suspension was prepared for non-fixed cell measurement (0.5 mL for propidium iodide (PI) viability measurement and 0.5 mL for Nile red measurement).
The remaining cells were fixed with 3.7% formaldehyde for 30 min. After a further centrifugation step cells were resuspended with 1.3 mL Nile red working solution (1 μg/mL) and incubated for 5 min at rt. The cell suspension was then washed twice with 3 mL PBS and centrifuged with 130×g for 4 min. The supernatant was discarded and the cells were resuspended with 0.5 mL PBS and kept for flow cytometry measurement. For Nile red staining of the 0.5 mL non-fixed cell samples, 50 μL of a ready to use Nile red solution (10 μg/mL) were added per sample. Samples were kept on ice for 5 min. Thereafter, they were washed once with 4 mL PBS (4° C., 250×g for 8 min) and finally resuspended in 400 μL PBS and kept for flow cytometry measurement.
For the viability measurement, 12.5 μL of the ready to use PI solution (10 μg/mL) were added to the 0.5 mL non-fixed cell suspension. After 15 min of incubation on ice, the samples were measured by flow cytometry using a Coulter Epics XL/MCL flow cytometer.
The viability of the cells of each sample was determined by flow cytometry measurement of the PI content at channel 2 (568-590 nm). Cut-off gates for the fluorescence-dependent differentiation between live and dead cells were defined based on the analysis of cell culture medium control samples.
Only samples with a cell viability of >=90% relative to control samples were analyzed for phospholipidosis. For that, each Nile red sample (non-fixed and fixed samples) was measured by flow cytometry at channel 1 (504-541 nm) and channel 4 (660-680 nm).
For each channel, relative Nile red fluorescence intensity of a test sample was calculated compared to control samples and expressed as percentage of control fluorescence intensity. The assessment of the phospholipidogenic potential and the first effect concentration (FEC) of a test compound was done manually based on the fluorescence intensities at both wavelengths for the fixed cells as well as for the non-fixed cells.

Structures are written as SMILES. pIC50: −log10 of the molar value. Where two headings read alike, the source gives them in different places.

What is called IC50 is the midpoint of a concentration-inhibition curve. What is called inhibition is how much of the control response was suppressed.

Chain of hERG (Q12809 whole entry): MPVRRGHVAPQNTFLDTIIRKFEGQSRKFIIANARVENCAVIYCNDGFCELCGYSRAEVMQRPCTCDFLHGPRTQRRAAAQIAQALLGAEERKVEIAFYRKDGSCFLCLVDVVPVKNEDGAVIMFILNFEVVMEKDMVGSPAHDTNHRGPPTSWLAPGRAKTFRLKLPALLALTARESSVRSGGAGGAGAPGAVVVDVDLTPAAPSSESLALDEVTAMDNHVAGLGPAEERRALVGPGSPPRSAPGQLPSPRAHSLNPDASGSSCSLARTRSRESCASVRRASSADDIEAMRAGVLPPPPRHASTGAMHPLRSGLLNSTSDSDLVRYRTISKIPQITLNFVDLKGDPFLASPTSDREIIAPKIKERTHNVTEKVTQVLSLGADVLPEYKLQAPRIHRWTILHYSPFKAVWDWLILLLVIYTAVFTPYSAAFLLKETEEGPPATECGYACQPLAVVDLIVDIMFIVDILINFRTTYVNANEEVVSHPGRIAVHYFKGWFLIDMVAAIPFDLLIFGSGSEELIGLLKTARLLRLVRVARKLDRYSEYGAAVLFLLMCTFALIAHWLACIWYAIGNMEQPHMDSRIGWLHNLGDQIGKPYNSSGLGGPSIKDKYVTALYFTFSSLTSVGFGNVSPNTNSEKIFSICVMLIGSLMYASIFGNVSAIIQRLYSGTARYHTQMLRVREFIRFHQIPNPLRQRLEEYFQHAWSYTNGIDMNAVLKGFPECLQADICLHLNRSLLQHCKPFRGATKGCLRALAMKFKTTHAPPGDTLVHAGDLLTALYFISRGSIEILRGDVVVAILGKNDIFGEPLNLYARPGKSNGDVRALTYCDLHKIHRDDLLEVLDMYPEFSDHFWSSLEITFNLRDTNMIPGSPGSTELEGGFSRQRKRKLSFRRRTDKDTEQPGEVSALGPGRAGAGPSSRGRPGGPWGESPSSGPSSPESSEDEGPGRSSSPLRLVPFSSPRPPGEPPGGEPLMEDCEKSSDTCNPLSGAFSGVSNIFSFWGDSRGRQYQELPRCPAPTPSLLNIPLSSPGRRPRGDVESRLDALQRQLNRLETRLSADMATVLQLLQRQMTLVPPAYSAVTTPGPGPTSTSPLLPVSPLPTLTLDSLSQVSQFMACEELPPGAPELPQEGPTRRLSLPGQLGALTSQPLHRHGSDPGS
Chain of truncated human beta-secretase, BACE1 (amino acids 1-454) (P56817 22-454): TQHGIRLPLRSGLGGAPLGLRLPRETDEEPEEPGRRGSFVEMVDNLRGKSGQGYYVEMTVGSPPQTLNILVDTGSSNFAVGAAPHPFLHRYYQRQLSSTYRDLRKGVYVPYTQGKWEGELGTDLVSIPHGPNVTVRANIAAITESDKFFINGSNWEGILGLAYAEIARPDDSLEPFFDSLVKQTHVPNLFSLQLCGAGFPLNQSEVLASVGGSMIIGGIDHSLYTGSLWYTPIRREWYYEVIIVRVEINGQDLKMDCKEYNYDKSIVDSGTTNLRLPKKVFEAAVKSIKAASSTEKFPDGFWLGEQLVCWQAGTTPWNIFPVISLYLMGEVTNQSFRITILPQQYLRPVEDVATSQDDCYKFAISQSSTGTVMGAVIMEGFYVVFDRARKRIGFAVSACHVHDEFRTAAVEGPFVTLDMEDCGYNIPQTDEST

As for `CO[C@H]1[C@H](C)C[C@@]2(Cc3ccc(C#N)cc3[C@]23N=C(N)N(CC2(C)COC2)C3=O)C[C@@H]1C` [Example 11], the results for the IC50 in data set [1] and in data set [2] were 4 nM and 0.35 nM, respectively. The compound also came in with an inhibition at 10 µM against hERG of 6%. In data set [3], the IC50 at 48 h is greater than 400 µM.

Take `CO[C@H]1CC[C@]2(CC1)Cc1ccc(CCC3CC3)cc1[C@]21N=C(N)N(C[C@@H]2CCO2)C1=O` [Comparison example drawing 20, reference compound]: the pIC50 in data set [1] is 6.38; in data set [2] it was 7.80.

Regarding `CO[C@H]1[C@H](C)C[C@@]2(Cc3ccc(F)cc3[C@]23N=C(N)N(C[C@@H]2CCOC2)C3=O)C[C@@H]1C` [Example 25], in data set [2], the IC50 amounted to 0.99 nM. Further, at hERG, 10 µM produced 10% inhibition. The IC50 at 48 h in data set [3] stood at 200 µM.

Turning to `COC1CCC2(CC1)Cc1ccc(C#N)cc1C21N=C(N)N(C(C)C)C1=O` (centres unmarked) [Comparison example drawing 17, reference compound], the pIC50 in data set [1] was 6.97; in data set [2] it was 7.80.

Regarding `CO[C@H]1[C@H](C)C[C@@]2(Cc3ccc(C#N)cc3[C@]23N=C(N)N(Cc2ccncn2)C3=O)C[C@@H]1C` [Example 24], the IC50 turned out to be 5 nM in data set [1] and 0.65 nM in data set [2]. The compound further came in with an inhibition at 10 µM at hERG of 23%. In data set [3], the IC50 at 48 h worked out at 200 µM.

Consider `CC[C@@H]1C[C@]2(CC[C@H]1OC)Cc1ccc(C#N)cc1[C@]21N=C(N)N(CC(C)(C)F)C1=O` [Example 3], for which the IC50 in data set [1] was found to be 10 nM; in data set [2] it was 0.57 nM. The compound also gave an inhibition at 10 µM at hERG of 9%. For the same compound, the IC50 at 48 h in data set [3] was greater than 200 µM.

Consider `CO[C@H]1[C@H](C)C[C@@]2(Cc3ccc(C#N)cc3[C@]23N=C(N)N(CCC2COC2)C3=O)C[C@@H]1C` [Example 19], for which the IC50 in data set [1] was 6 nM; in data set [2], 0.4 nM. On hERG, this compound came in with an inhibition at 10 µM of 8%. In data set [3], the IC50 at 48 h amounted to 400 µM.

Take `CC[C@@H]1C[C@]2(CC[C@H]1OC)Cc1ccc(C#N)cc1[C@]21N=C(N)N(Cc2ncccn2)C1=O` [Example 1]: the IC50 in data set [1] is 11 nM; in data set [2], 0.76 nM. The compound also displayed an inhibition at 10 µM on hERG of 8%. In addition, the IC50 at 48 h in data set [3] was 200 µM.

Consider `COCCN1C(=O)[C@]2(N=C1N)c1cc(C#N)ccc1C[C@@]21CC[C@H](OC)[C@@H](C)C1` [Example 7], for which the results for the IC50 in data set [1] and in data set [2] were 2 nM and 1.42 nM, respectively. Moreover, on hERG, testing at 10 µM gave an inhibition of 8%. Besides, the IC50 at 48 h in data set [3] came to 400 µM.

As for `CO[C@H]1[C@H](C)C[C@@]2(Cc3ccc(C#N)cc3[C@]23N=C(N)N(Cc2ncc(F)cn2)C3=O)C[C@@H]1C` [Example 10], the IC50 in data set [1] was 9 nM; in data set [2] it was 1.12 nM. Besides, at hERG, the inhibition at 10 µM came to 38%. Besides, the IC50 at 48 h in data set [3] turned out to be 200 µM.

For the compound `CO[C@H]1CC[C@@]2(Cc3ccc(C#N)cc3[C@]23N=C(N)N(CC2COCCO2)C3=O)C[C@@H]1C` (some centres unmarked) [Example 27], the IC50 is 6 nM in data set [1] and 0.95 nM in data set [2]. Moreover, the inhibition at 10 µM on hERG was 19%. Further, the IC50 at 48 h in data set [3] was greater than 200 µM.

With `COC1CCC2(CC1)Cc1ccc(C#N)cc1C21N=C(N)N(CC2CCCO2)C1=O` (centres unmarked) [Comparison example drawing 11, reference compound], in data set [2], the pIC50 was 8.15. For the same compound, the “hERG (assay 3)” value on hERG (at 10 μM, Table 2 comparison examples) is recorded as “hERG (assay 3) 16% at 10 μM”.

For the compound `CO[C@H]1[C@H](C)C[C@@]2(Cc3ccc(C#N)cc3[C@]23N=C(N)N(CC2CCOCC2)C3=O)C[C@@H]1C` [Example 16], the figures for the IC50 in data set [1] and in data set [2] were 11 nM and 0.2 nM, respectively. The inhibition at 10 µM against hERG worked out at 6%. Also, in data set [3], the IC50 at 48 h amounted to 200 µM.

For `COCCN1C(=O)C2(N=C1N)c1cc(C#N)ccc1C[C@]21CC[C@@H](OC)CC1` (some centres unmarked) [Comparison example drawing 14, reference compound], the pIC50 in data set [1] is 7.31; in data set [2], 7.80.

As to `CC[C@H]1C[C@@]2(CC[C@@H]1OC)Cc1ccc(C#N)cc1[C@]21N=C(N)N(C[C@H]2CCCO2)C1=O` [Example 5], the concentration for half-maximal inhibition (IC50) in data set [2] was determined as 0.9 nM. Moreover, at hERG, the inhibition at 10 µM came to 7%. Further, the IC50 at 48 h in data set [3] was determined as 200 µM.
